{"source": "patent US20240374626A1", "about": "“METHODS OF ENHANCING MILK PRODUCTION IN LACTATING MAMMALIAN SUBJECTS” (priority 2023, published 2024)", "key": {"HC11 cells [1]": {"test_system": "HC11 cells", "experiment": "Milk production markers in differentiated HC11 (milk domes, Csn2 RT-qPCR, CSN2 WB, PLIN2 ICC)", "format": "cell-based, mouse", "details": "HC11, doxorubicin 50 nM, differentiated", "experimental": "The HC11 cell line was obtained from American Type Culture Collection (ATCC) and routinely checked for mycoplasma (Mycoplasma PCR kit, ABM, G238). Undifferentiated HC11 cells were cultured in growing medium (RPMI-1640; Thermo Fisher Scientific, 72400047), supplemented with 10% FBS, 5 μg/ml insulin (Millipore-Sigma, 16634), 10 ng/ml epidermal growth factor (EGF; Preprotech, AF-100-15) and 1× AntiAnti (Thermo Fisher Scientific, 15240112) at 37° C. with 5% CO2. Cells were grown to confluency and maintained in growing medium for 2 days, until they became competent. Competent HC11 cells were primed for differentiation by culturing them in priming medium [RPMI-1640 supplemented with 5 μg/ml insulin, 1 μM dexamethasone (Millipore-Sigma, D4902-1 G) and 1× Anti-Anti] for 24 h at 37° C. with 5% CO2. To induce differentiation, primed HC11 cells were cultured in DIP Medium [RPMI-1640, supplemented with 10% FBS, 5 μg/ml insulin, 1 μM dexamethasone, 1× anti-anti and 3 μg/ml Prolactin (NHPP, oPRL-21)] at 37° C. with 5% CO2.\n(§1) […] Drugs were maintained through the differentiation process and added with every change of media.\nWhole cell lysates were prepared using 1×NP40 lysis buffer (Thermo Fisher Scientific, FNN0021) supplemented with Pierce Protease and Phosphatase inhibitors (Thermo Fisher Scientific, A32959). Cells were washed with ice-cold PBS (GIBCO, 14190136) and lysed direct in buffer and kept at 4° C. rocking at 70 rpm for 30 min. Lysed cells were collected and centrifuged at 12,000 rpm at 4° C. for 15 min. Protein concentration was quantified using Qubit 4 fluorometer (Thermo Fisher, Q33238). Samples were resolved by SDS page and transferred to polyvinylidene difluoride (PVDF, Millipore-Sigma, IPVH00010) for 60 min at 250 mA. Immunoblots were blocked for 1 h at room temperature using either 5% non-fat milk or 5% BSA TBST. Primary antibodies [anti-GAPDH (SCBT, sc-365062), anti-Actin (SCBT, sc-47778), anti-Cyclin B1 (SCBT, sc-245), anti-Cyclin E1 (Millipore-Sigma, SAB4503516) and anti-CSN2 (ABclonal, A12749)] were incubated overnight at 4° C. in a rocker. HRP-conjugated secondary antibodies ([…]) were used for 1 h at room temperature. Immunoblots were developed using Clarity ECL (Bio-Rad), detected using a Bio-Rad ChemiDoc MP Image, and quantified using ImageJ.\nHC11 cells were fixed using ice-cold MeOH for 10 min. After washing with 1×PBS, cells were incubated for 1 h at room temperature with primary antibodies [anti-γH2AX (SCBT, sc-517348), anti-pATR (Genetex, GTX128145), anti-PLIN2 (generously provided by Jim McManaman)] in a humid incubation chamber. After incubation, cells were washed three times using 1×PBS and incubated for 1 h at room temperature in darkness using corresponding Alexa Fluor AffiniPure secondary antibodies (Jackson ImmunoResearch) and Phalloidin-iFluor 488 Reagent (Abcam, ab176753) when indicated. Cells were washed three times using 1×PBS and incubated with Hoechst 33342 (AnaSpec, AS-83218) for 10 min. Cells were mounted using fluoromount-G (Southern Biotech, 0100-01) and visualized using Zeiss Axio Imager Microscope. Integrated density of PLIN2, nuclear γH2AX and nuclear pATR was quantify using ImageJ.\nFor RNA isolation from FACS purified populations, mammary gland cell suspensions were blocked using Mouse BD Fc Block™ (BD Biosciences) for 10 min. Cells were subsequently resuspended on 1×PBS at a density of 10^7 cells/ml and stained with the following antibodies for 30 min on ice: anti-CD24 PE (Stem Cell Technologies, 60099PE.1), anti-CD29 PE-Cy7 (BioLegend, 102222), anti-CD45-APC (BioLegend,105826), Ter119-APC (BD Biosciences, 561033), CD31-ACP (BD Biosciences, 551262). Propidium iodide at a final concentration of 0.5 μg/ml was used for the discrimination of dead cells. Stromal, basal and luminal mammary populations were sorted using a BD FACS Aria II Cell Sorter. […]"}, "HC11 cells [2]": {"test_system": "HC11 cells", "experiment": "Visualization of FACS-purified HC11 subpopulations sorted on DNA content (nuclei number)", "format": "cell-based, mouse", "details": "HC11, doxorubicin 50 nM, FACS-purified population", "experimental": "as §1\nMammary gland CK8+ epithelial cells or HC11 were sorted based on DNA content using BD FACS Aria II Cell Sorter. After sorting, cells were stained in suspension using Phalloidin-iFluor 488 Reagent (Abcam, ab176753) for 30 min at room temperature in darkness. Cells were spined down onto microscopy slides (Fisher, 12-550-15) using Cytospin 2 (Shandon, 599X52) at 500 rpm for 3 min. Cells were mounted using fluoromount-G (Southern Biotech, 0100-01) and visualized using Zeiss Axio Imager Microscope."}}}
{"smiles": "COc1cccc2c1C(=O)c1c(O)c3c(c(O)c1C2=O)C[C@@](O)(C(=O)CO)C[C@@H]3O[C@H]1C[C@H](N)[C@H](O)[C@H](C)O1", "note": "[doxorubicin]", "values": [{"measurement": "CSN2, WB", "setting": "HC11 cells [1]", "result": "increase"}, {"measurement": "nuclei number of polyploid cells generated", "setting": "HC11 cells [2]", "result": "generated both mono- and binucleated polyploid cells"}]}
